Test results: patent publication US20070270421A1, “Novel pyridine Derivative and Pyrimidine Derivative (1)” (priority 2004, published 2007)

Target: T1, HGFR (His6-HGFR cytoplasmic domain) (Homo sapiens, UniProt P08581)
T1 construct: made in house; host or cells: Spodoptera frugiperda Sf9 insect cells (baculovirus, pFastBac-HT)
Assay: Inhibitory activity against HGFR tyrosine kinase activity (HTRF)
Assay type: biochemical
Conditions: biotin-poly(GT), ATP, 30° C. 10 min, read-out: IC50 (concentration necessary to inhibit HGFR kinase activity by 50%)
Method in brief: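 Baculovirus/Sf9-expressed N-terminal His6-tagged HGFR cytoplasmic domain (from Lys974), Ni-NTA purified, phosphorylated biotin-poly(GT) in Hepes pH 7.4 with MgCl2/MnCl2. ATP added as 4 μM solution; 10 min at 30° C., stopped with EDTA. Phosphotyrosine product detected by HTRF.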

T1 sequence (P08581 956-1390 limits assumed): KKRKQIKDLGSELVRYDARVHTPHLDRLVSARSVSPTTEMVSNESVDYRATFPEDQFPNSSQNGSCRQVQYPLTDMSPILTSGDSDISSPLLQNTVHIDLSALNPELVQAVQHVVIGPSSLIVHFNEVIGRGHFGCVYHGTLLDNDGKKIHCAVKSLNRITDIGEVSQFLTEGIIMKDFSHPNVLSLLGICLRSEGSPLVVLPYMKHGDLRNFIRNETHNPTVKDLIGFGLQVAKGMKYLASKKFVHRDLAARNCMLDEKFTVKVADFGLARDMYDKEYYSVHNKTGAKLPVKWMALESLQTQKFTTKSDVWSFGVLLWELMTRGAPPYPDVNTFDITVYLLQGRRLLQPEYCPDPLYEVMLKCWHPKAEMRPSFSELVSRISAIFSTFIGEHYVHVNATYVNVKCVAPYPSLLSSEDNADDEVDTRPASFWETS

IC50: 75 nM
SMILES: CN(C)CCN1CCN(C(=O)Nc2cc(Oc3ccc(NC(=S)NC(=O)Cc4ccc(F)cc4)cc3)ccn2)CC1 [Example 327, 2-{[4-(2-Dimethylaminoethyl)piperazin-1-yl]carbonylamino}-4-(4-{3-[2-(4-fluorophenyl)acetyl]thioureido}phenoxy)pyridine]
